According to patent US20130014428A1, “METHODS OF MONITORING AND CONTROLLING THE WALNUT TWIG BEETLE, PITYOPHTHORUS JUGLANDIS” (The United States of America as Represented by the …, priority 2011, published 2013):

Experiments:
[1] = tested on: walnut twig beetle (WTB), Pityophthorus juglandis; test: Example 1 Field Test 2: flight response to X with and without racemic conophthorin; assay type: in vivo; details: yellow sticky card traps, Davis CA
Protocol: (§1) Field Bioassays of Semiochemicals. To test the attractiveness of the various compounds of interest, some of the commercially available materials listed above were poured into 15 ml capped polyethylene bottles (Product #s A1-1050/002, A1-1055/002; Contech Enterprises Inc., Delta, British Columbia, Canada) and attached to yellow sticky card traps (Trécé, Adair, OK). In addition, synthesized (+) and (−) enantiomers of trans-conophthorin were tested in 400 μl polyethylene Eppendorf microcentrifuge tubes. Four field studies were conducted (Table 2) that tested the flight responses to: 3-methyl-2-buten-l-ol and related isomers (Field Test 1); 3-methyl-2-buten-l-ol with and without racemic trans-conophthorin (Field Test 2); 3-methyl-2-buten-l-ol with and without the purified enantiomers of trans-conophthorin (Field Test 3); and 3-methyl-2-buten-l-ol with and without racemic chalcogran (Field Test 4).
(§2) Statistical Analysis. Field Tests 1-4 were each analyzed for treatment effect by using Friedman's non-parametric analysis of variance. (See Zar, J. H. 2010. Biostatistical Analysis, 5th Ed. Pearson Prentice Hall, New Jersey). Males and females were subjected to separate analyses. All treatments within experiments yielding a significant treatment effect were compared by using an a posteriori Nemenyi test (Zar 2010) with experimentwise α=0.05. Sex ratios of responding WTB were determined using Cochran's method for unbiased sampling (See Cochran, W. G. 1977. Sampling Techniques, 3rd ed. John Wiley, New York), with 95% confidence intervals calculated by using the Clopper-Pearson method. (See Zar, J. H. 2010. Biostatistical Analysis, 5th Ed. Pearson Prentice Hall, New Jersey).

[2] = tested on: walnut twig beetle (WTB), Pityophthorus juglandis; test: Example 1 Field Test 4: flight response to X with and without racemic chalcogran; assay type: in vivo; details: yellow sticky card traps, Davis CA
Protocol: as §1, §2

[3] = tested on: walnut twig beetle (WTB), Pityophthorus juglandis; test: Example 1 Field Test 1: flight response to X and related isomers, yellow sticky card traps; assay type: in vivo
Protocol: Field Bioassays of Semiochemicals. […] Contech Enterprises Inc., Delta, British Columbia, Canada) and attached to yellow sticky card traps ([…], OK). In addition, synthesized (+) and (-) enantiomers of trans-conophthorin were tested in 400 μl polyethylene Eppendorf microcentrifuge tubes. Four field studies were conducted (Table 2) that tested the flight responses to: 3-methyl-2-buten-l-ol and related isomers (Field Test 1); 3-methyl-2-buten-l-ol with and without racemic trans-conophthorin (Field Test 2); 3-methyl-2-buten-l-ol with and without the purified enantiomers of trans-conophthorin (Field Test 3); and 3-methyl-2-buten-l-ol with and without racemic chalcogran (Field Test 4). [table] Statistical Analysis. Field Tests 1-4 were each analyzed for treatment effect by using Friedman's non-parametric analysis of variance. (See Zar, J. H. 2010. Biostatistical Analysis, 5th Ed. Pearson Prentice Hall, New Jersey). Males and females were subjected to separate analyses. All treatments within experiments yielding a significant treatment effect were compared by using an a posteriori Nemenyi test (Zar 2010) with experimentwise α=0.05. Sex ratios of responding WTB were determined using Cochran's method for unbiased sampling (See Cochran, W. G. 1977. Sampling Techniques, 3rd ed. John Wiley, New York), with 95% confidence intervals calculated by using the Clopper-Pearson method. (See Zar, J. H. 2010. Biostatistical Analysis, 5th Ed. Pearson Prentice Hall, New Jersey).

[4] = tested on: WTB; test: Baited vs unbaited funnel trap pairs in Tennessee and Virginia; assay type: in vivo, Pityophthorus juglandis; details: 15-80 mg/d
Protocol: The efficacy of the WTB trap bait as a detection tool was tested across the United States for a range of populations of the beetle that might be biologically heterogeneous and may occur at various densities in the landscape. The information learned from these trials was instrumental in preparing the national trapping guidelines for walnut twig beetle. […] For each state, trapping was performed in areas of known WTB infestation as well as nearby localities where WTB had not been previously detected. […]
To compare the effectiveness of the bait in the eastern range of WTB, pairs of baited and unbaited traps were located in Tennessee (3 pairs, 10 repeated measures for each pair) and Virginia (4 pairs, 12 repeated measures for each pair). […] Trap catch data were analyzed with a sign test. […]

[5] = about one month late spring, N=16
[6] = about one month late summer, N=13
[7] = about three months in summer, Davis CA, N=21

## CC(C)=CCO [X, 3-methyl-2-buten-1-ol]
[1]
  proportion of females responding: 0.65
[1]; [5]
  trap catches, female WTB: 459
  trap catches, male WTB: 250
[2]
  proportion of females responding: 0.69
[2]; [6]
  trap catches, female WTB: 94
  trap catches, male WTB: 43
[3]
  flight attraction: attractive to males and females
[3]; Davis CA
  proportion of females responding: 0.65
[3]; [7]
  trap catches, female WTB: 438
  trap catches, male WTB: 233
[4]; Tennessee, 4-unit funnel traps, N=30
  WTB detected at baited traps: 19.1 WTB/trap/week
[4]; Virginia, 12-unit funnel traps, N=48
  WTB captured in baited traps: 42.3 WTB/trap/week
